From ChEMBL document CHEMBL4321815, “Discovery of an Extremely Potent Thiazine-Based β-Secretase Inhibitor with Reduced Cardiovascular and Liver Toxicity at a Low Projected Human Dose” (J Med Chem, 2019)

Legend:
[1] = tested on: Canis familiaris; assay: In vivo inhibition of BACE1 in po dosed Beagle dog assessed as plasma level causing 50% reduction in amyloidbeta42 level in CSF administered as single dose measured after 4 to 49 hrs; format: functional, organism-based; settings: Canis lupus familiaris
[2] = tested on: Homo sapiens; assay: In vivo inhibition of BACE1 in human assessed as reduction in amyloidbeta level at 75 mg administered once daily relative to control; format: functional
[3] = organism: Canis familiaris; assay: animal or person; format: functional, organism-based; settings: Canis lupus familiaris, Beagle
[4] = tested on: Homo sapiens; assay: In vivo inhibition of BACE1 in human assessed as reduction in amyloidbeta level at 30 mg administered once daily after 14 days MSD electrochemiluminescent immunoassay relative to control; format: functional
[5] = Hepatotoxicity in Beagle dog assessed as increase in alanine aminotransferase level at 50 mg/kg/day, po administered for 2 weeks; format: toxicity, organism-based, Canis lupus familiaris; settings: in vivo, 336 h
[6] = Hepatotoxicity in po dosed Beagle dog assessed as induction of inflammatory cell infiltration of centrilobular hepatocytes at highest dose administered for 2 weeks; format: toxicity, organism-based, Canis lupus familiaris; settings: in vivo, 336 h

Compound | EC50 [1] | inhibition (INH) [2] | EC50 [3] | inhibition (INH) [4] | Activity [5] | Activity [6]
C[C@H]1OC[C@]2(c3cc(NC(=O)c4cnc(C(F)F)cn4)ccc3F)N=C(N)SC[C@H]12 [ELENBECESTAT] | 0.022 µM | 80% | 0.0081 µM | – | – | –
C[C@@]1(c2cc(NC(=O)c3ccc(C#N)cn3)ccc2F)C=CSC(N)=N1 [ATABECESTAT] | – | – | – | 80% | Toxic | Toxic
